Measured values from US5561111A, “Stable glutamine derivatives for oral and intravenous rehydration and nutrition therapy” (The University of Virginia Patent Foundation, priority 1994, dated 1996).
Peptide text beside a SMILES is read from it.

Tested on: rabbit ileal mucosa
Test: Intestinal sodium cotransport in rabbit ileal mucosa mounted in Ussing chambers
Procedure: To study intestinal sodium cotransport using the compounds of the present invention, Ala-Glu and Ala-Gln were tested according to the method of Lima et al, Brazilian J. Med Biol. Res., 25:637-640 (1992) for measuring intestinal sodium cotransport in rabbit ileal mucosa mounted in Ussing chambers. […] As shown the dose response increases dramatically in a non-linear fashion. […] The pD2 value is related to the ED50 in accordance with the following formula: -log ED50 =pD2.

In the case of C[C@H](N)C(=O)N[C@@H](CCC(N)=O)C(=O)O [Ala-Gln, alanyl-glutamine] (H-Ala-Gln-OH), the “maximum increase (Emax) in Isc” value was 150 μA/cm^2.
